Measurements published in patent US20260007133A1, “HERBICIDAL COMPOSITION COMPRISING AZINE COMPOUNDS” (BASF SE, priority 2022, published 2026).
Read-outs that look alike come from different tables or passages of the source.

Tests used:
Type in all cases: in vivo
[1] = tested on: Geranium pusillum; assay: Greenhouse post-emergence (POST) herbicidal test on GERPU; settings: Geranium pusillum, post-emergence, 480 h, POST, GERPU, 20 DAT
Procedure, shortened: (§1)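 Plants grown in pots of loamy sand (~3.0% humus) to 3–15 cm height, then sprayed with compounds suspended or emulsified in water (formulated as 5% by weight emulsion concentrate). Kept at 10-25° C or 20-35° C by species; injury scored 0–100 (100 = complete destruction) at 20 DAT.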

[2] = tested on: Abutilon theophrasti; assay: Greenhouse post-emergence (POST) herbicidal test on ABUTH; settings: Abutilon theophrasti, post-emergence, 480 h, POST, ABUTH, 20 DAT
Procedure, shortened: as §1

[3] = tested on: Euphorbia heterophylla; assay: Greenhouse post-emergence (POST) herbicidal test on EPHHL; settings: Euphorbia heterophylla, post-emergence, 480 h, POST, EPHHL, 20 DAT, read-out: solo application % activity
Procedure, shortened: as §1

[4] = tested on: Ipomoea hederacea; assay: Greenhouse post-emergence (POST) herbicidal test on IPOHE; settings: Ipomoea hederacea, post-emergence
Procedure, shortened: as §1

[5] = tested on: Digitaria sanguinalis; assay: Greenhouse post-emergence (POST) herbicidal test on DIGSA; settings: for inhibition at 2 g/ha / inhibition at 8 g/ha: Digitaria sanguinalis, post-emergence; for inhibition at 2 g/ha: use rate 2 gai/ha
Procedure, shortened: as §1

[6] = tested on: Ambrosia artemisiifolia; assay: Greenhouse pre-emergence (PRE) herbicidal test on AMBEL; settings: Ambrosia artemisiifolia, pre-emergence; for inhibition at 8 g/ha: use rate 8 gai/ha
[7] = use rate 2 gai/ha, read-out: solo application % activity
[8] = use rate 8 gai/ha, read-out: solo application % activity

Structure (SMILES): COc1c(Cl)c(F)c(F)c(F)c1Nc1nc(N)nc(C(C)(C)F)n1 [Compound I-4, N4-(5-Chloro-2,3,4-trifluoro-6-methoxy-phenyl)-6-(1-fluoro-1-methyl-ethyl)-1,3,5-triazine-2,4-diamine]
- pest or weed control at 2 g/ha ([1]; I-4 solo 2 gai/ha): 10%
- pest or weed control at 8 g/ha ([1]; I-4 solo 8 gai/ha): 30%
- inhibition at 2 g/ha [1, 7]: 5%
- inhibition at 8 g/ha [1, 8]: 25%
- pest or weed control at 2 g/ha ([2]; I-4 solo 2 gai/ha): 20%
- inhibition at 2 g/ha [2, 7]: 10%
- inhibition at 8 g/ha [2, 8]: 10%
- inhibition at 2 g/ha ([3]; use rate 2 gai/ha): 30%
- inhibition at 8 g/ha ([3]; use rate 8 gai/ha): 35%
- inhibition at 8 g/ha ([4]; 480 h, POST, IPOHE, use rate 8 gai/ha, 20 DAT, read-out: solo application % activity): 80%
- inhibition at 2 g/ha ([4]; IPOHE POST, use rate 2 gai/ha, read-out: % activity): 40%
- % activity ([5]; DIGSA POST, use rate 8 gai/ha): 35%
- inhibition at 2 g/ha ([5]; 480 h, POST, DIGSA, 20 DAT, read-out: solo application % activity): 0%
- inhibition at 8 g/ha ([5]; 480 h, POST, DIGSA, use rate 8 gai/ha, 20 DAT, read-out: solo application % activity): 0%
- inhibition at 2 g/ha ([5]; DIGSA POST, read-out: % activity): 10%
- inhibition at 8 g/ha ([5]; DIGSA POST, use rate 8 gai/ha, read-out: % activity): 25%
- inhibition at 4 g/ha ([6]; 240 h, PRE, use rate 4 gai/ha, 10 DAT): 10%
- pest or weed control at 8 g/ha ([6]; 480 h, PRE, AMBEL, I-4 solo 8 gai/ha, 20 DAT): 35%
- inhibition at 2 g/ha ([6]; 480 h, PRE, AMBEL, use rate 2 gai/ha, 20 DAT, read-out: solo application % activity): 0%
- inhibition at 8 g/ha ([6]; 480 h, PRE, AMBEL, 20 DAT, read-out: solo application % activity): 30%
- inhibition at 8 g/ha ([6]; AMBEL PRE, read-out: % activity): 15%
